# Data published in patent publication US20240261375A1, “PHARMACEUTICAL COMPOSITION FOR TREATING OR PREVENTING DISORDER ASSOCIATED WITH ADMINISTRATION OF ANTICANCER AGENT” (LTT BIO-PHARMA CO., LTD., priority 2021, published 2024).
# Like-named read-outs stand apart in the source and are kept apart here.
# Tests used:
# RAW cells [1] = test: Toxicity of anticancer agents against RAW cells (CellTiter-Glo viable cell count); format: cell-based
# Protocol: RAW cells were seeded on a 96-well plate at 20 000 cells/well (D-MEM high glucose medium containing 10% inactivated FBS). […] The number of viable cells was counted 24 hours later by measuring chemical luminescence by using CellTiter-Glo™ 2.0 Cell Viability Assay (Promega) and a plate reader (Tecan, Infinite M Plex). Cells for four wells were analyzed for each group.
# RAW cells [2] = test: Active oxygen production in RAW cells (MitoSOX Red); format: cell-based
# Protocol: RAW cells were seeded on a 96-well plate for fluorescence at 20 000 cells/well (D-MEM high glucose medium containing 10% inactivated FBS). […] Sixteen hours later, cells were treated with an HBSS solution containing dissolved MitoSOX™ Red Mitochondrial Superoxide Indicator (Invitrogen™) for 30 minutes, and the medium was replaced with D-MEM high glucose medium containing 1% inactivated FBS. Active oxygen production in mitochondria was determined by measuring fluorescence (Ex 510 nm, Em 580 nm) by using a plate reader (Infinite M Plex, Tecan). Cells for four wells were analyzed for each group.
# [3] = tested on: PC12 cells differentiated by NGF; test: Neurite retraction in NGF-differentiated PC12 cells caused by anticancer agents; format: cell-based, rat; conditions: oxaliplatin 20 μM, 24 hours, FIG. 8
# Protocol: Rat adrenal gland pheochromocytoma-derived PC12 cells are known to be differentiated into neuron-like cells having neurites by nerve growth factor (NGF) and are widely used as a nerve cell model. To assess the neurite-protective action of PC-SOD, the effect of PC-SOD in neurite disorder caused by various anticancer agents was analyzed by using PC12 cells differentiated by NGF.
# PC12 cells were seeded on a 24-well plate coated with collagen at 5 000 cells/well. […] The images of cells were captured by using a microscope (BZ-X800, Keyence Corporation), and the neurite lengths were measured by using an image analysis software ImageJ (NIH).
# (§1) PC12 cells were seeded on a 24-well plate coated with collagen at 5 000 cells/well. […] After neurite elongation, cells were cultured by using differentiation media each containing carboplatin (with a final concentration of 50 μM) alone or carboplatin and PC-SOD (with final concentrations of 10, 20, 50, and 100 μg/mL) for 24 hours. The images of cells were captured by using a microscope (BZ-X800, Keyence Corporation), and the neurite lengths were measured by using an image analysis software ImageJ (NIH).
# as §1, with “containing paclitaxel (abbreviated as PTX in the figure of results) alone” for “containing carboplatin”, “of 0.1” for “of 50”, “μM)” for “μM) alone”, “or paclitaxel” for “or carboplatin”, “10,” for “10, 20,”
# [4] = tested on: liver of OXA-treated rats; test: Pathological assessment of liver disorder caused by oxaliplatin (HE staining); format: in vivo, rat; conditions: PC-SOD 1 mg/kg, mangafodipir dose not given, FIG. 5
# Excerpt: A liver tissue was collected and fixed with 10% neutral buffered formalin to prepare a paraffin block by using Histos 5 (Milestone) and an embedding center (EG1160, Leica). The sample block was thinly sliced at a thickness of 3 μm by using a microtome (MR2245, Leica) to prepare a slide. The prepared slide was stained by HE staining, enclosed, and observed at 200 and 400-fold magnifications by using the optical microscope function of All-in-One Fluorescence Microscope (BZ-X800, Keyence Corporation). Observation and assessment were performed by observing the whole section. Two to four representative tissue images were randomly taken up, and alteration in the tissue structure, such as inflammation and necrosis, was observed and assessed (Scale bar=200 μm).
# [5] = tested on: Large intestine cancer cells (colo320, HCT116); test: Proliferation of large intestine cancer cells (CCK-8); format: cell-based; conditions: OXA alone, 3-fold dilutions from 100 μM, 72 hours; FIG. 6
# Protocol: Large intestine cancer cells (colo320, HCT116) were added to RPM1640 medium (Thermo Fisher Scientific Inc.) containing 10% fetal bovine serum and 100 units/mL penicillin-streptomycin (Gibco BRL) and cultured at 37° C. in a 5% CO2 incubator.
# Cells were seeded on a 96-well plate at 10 000 cells/well and treated with a test solution 24 hours later. A test solution containing OXA alone was diluted 3-fold from 100 μM (10 levels) and added to a 96-well plate. A test solution containing OXA+PC-SOD was obtained by adding the same concentrations of OXA to PC-SOD (50 μg/mL) (n=3 per group). After cells were cultured for 72 hours, a CCK-8 solution was added in a volume of 1/10 of the solution in each well, and the mixture was measured at 490 nm of absorbance (Tecan, Tecan Japan). Data were expressed with mean±standard error (SEM). It should be noted that experiment conditions were allowed to be changed as required.
# [6] = anticancer agent alone, 24 hours, FIG. 12-1
# [7] = anticancer agent alone, 16 hours, FIG. 13-1
Molecule,number of viable RAW cells (RAW cells [1]; [6]),active oxygen production in mitochondria of RAW cells (RAW cells [2]; [7]),active oxygen production in mitochondria of RAW cells (RAW cells [2]),further results
N.N.O=C([O-])C1(C(=O)[O-])CCC1.[Pt+2] [carboplatin],decreased the number of viable cells dependently on the concentration of the anticancer agent,induced active oxygen production dependently on the concentration of the anticancer agent,,
Nc1ccn([C@@H]2O[C@H](CO)[C@@H](O)C2(F)F)c(=O)n1 [gemcitabine],,,induced active oxygen production dependently on the concentration of the anticancer agent,number of viable RAW cells (RAW cells [1]): decreased the number of viable cells dependently on the concentration of the anticancer agent
mangafodipir [reference compound],,,,neurite retraction caused by oxaliplatin ([3]; test substance 5 μg/mL): a weak suppressing tendency was observed; neurite retraction caused by oxaliplatin ([3]; test substance at concentrations higher than 5 μg/mL (up to 50 μg/mL)): no higher retraction suppressing effect was observed; necrosis of liver cells caused by OXA [4]: the suppressive effect on necrosis of liver cells caused by OXA was not observed
N.N.[Cl][Pt][Cl] [cisplatin],,,induced active oxygen production dependently on the concentration of the anticancer agent,
O=C1[O][Pt]2([NH][C@@H]3CCCC[C@H]3[NH]2)[O]C1=O [oxaliplatin],decreased the number of viable cells dependently on the concentration of the anticancer agent,induced active oxygen production dependently on the concentration of the anticancer agent,,proliferation of large intestine cancer cells [5]: Suppression of proliferation of large intestine cancer cells caused by OXA was confirmed
